Test results from BigSolDB 2.1.

C[C@@H]1O[C@@H](OC[C@H]2O[C@@H](Oc3c(-c4ccc(OCCO)c(OCCO)c4)oc4cc(OCCO)cc(O)c4c3=O)[C@H](O)[C@@H](O)[C@@H]2O)[C@H](O)[C@H](O)[C@H]1O
solubility (mole fraction)
Settings	288.15 K	293.15 K	298.15 K	303.15 K	308.15 K	313.15 K	318.15 K	323.15 K
in 1,4-dioxane	0.000517	0.000596	0.000724	0.000865	0.00103	0.00121	0.00144	0.00171
in acetone	3.1e-05	3.4e-05	4.2e-05	5.5e-05	7e-05	9.1e-05	0.000124	0.000162
in acetonitrile	8e-06	1.2e-05	1.5e-05	2.1e-05	2.8e-05	3.8e-05	4.9e-05	7e-05
in ethanol	0.000228	0.000252	0.00029	0.000346	0.000407	0.000468	0.000547	0.000632
in isobutanol	4.1e-05	5.4e-05	7e-05	9e-05	0.000125	0.000176	0.000238	0.000312
in isopropanol	9.3e-05	0.000119	0.000161	0.000207	0.000268	0.000329	0.000403	0.000519
in methanol	0.000245	0.000291	0.000362	0.00045	0.000573	0.000714	0.000876	0.00107
in n-butanol	8e-05	0.000102	0.000142	0.000187	0.000248	0.000312	0.000382	0.000494
in n-pentanol	7.1e-05	9e-05	0.000107	0.000132	0.00017	0.000222	0.000289	0.000377
in n-propanol	0.000144	0.000177	0.000215	0.000258	0.000317	0.000377	0.000458	0.000562
in sec-butanol	8.6e-05	0.000108	0.00015	0.000194	0.000254	0.000319	0.000391	0.000505
